Source: patent US20230160909A1, “NOVEL ION CONDUCTING CHANNEL FUSION SUBUNITS AND METHODS OF USE THEREOF” (UNIVERSITE DE BORDEAUX, priority 2020, published 2023)
Values belong to the compound of their own block, whether it stands above or below them.

Tests used:
Type in all cases: cell-based
hP2X7 = target: T1, hP2X7 (Homo sapiens, UniProt Q99572); assay: hP2X7-NeonGreen-Calflux-nLuc BRET probe in HEK293T cells; settings: read-out: EC50 of activation of hP2X7 probe
T1 construct: expressed in transfected cells; host or cells: HEK293T
T1 sequence (Q99572 1-595): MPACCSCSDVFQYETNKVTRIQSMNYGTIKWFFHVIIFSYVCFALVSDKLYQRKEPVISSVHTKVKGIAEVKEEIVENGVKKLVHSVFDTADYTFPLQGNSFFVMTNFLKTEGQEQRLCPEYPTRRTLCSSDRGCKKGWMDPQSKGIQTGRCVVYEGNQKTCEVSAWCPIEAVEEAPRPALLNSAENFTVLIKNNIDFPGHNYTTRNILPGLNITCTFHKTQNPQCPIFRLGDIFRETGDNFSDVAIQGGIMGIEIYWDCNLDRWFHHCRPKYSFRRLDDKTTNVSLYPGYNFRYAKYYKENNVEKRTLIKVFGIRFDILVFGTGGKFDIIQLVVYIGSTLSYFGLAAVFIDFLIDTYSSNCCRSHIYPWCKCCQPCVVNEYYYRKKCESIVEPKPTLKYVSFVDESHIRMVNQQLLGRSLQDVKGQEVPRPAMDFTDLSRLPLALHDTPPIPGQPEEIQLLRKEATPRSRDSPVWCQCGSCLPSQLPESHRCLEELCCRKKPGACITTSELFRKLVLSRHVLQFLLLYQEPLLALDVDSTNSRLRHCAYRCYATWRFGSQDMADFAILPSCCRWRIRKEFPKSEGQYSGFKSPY
Text: (§1) Values were normalized to the maximal efficacy measured individually for each probe and represent the mean of three independent experiments.
(§2) We constructed human and murine P2X-NeonGreen-Calflux-nLuc probes wherein the DNA sequence encoding the seven human or mouse P2X subunits are individually fused in C-terminal to the calflux calcium sensor sandwiched in between the nanoluciferase and mNeonGreen (FIG. 11 left panel).

GABARho1 (GABA receptor) = target: T2, GABARho1 (GABA receptor) (Homo sapiens, UniProt P24046); assay: YPetCI BRET sensor inserted in GABARho1 subunit; settings: with or without untagged GABARho1 subunit, FIG. 13G
T2 construct: expressed in transfected cells; host or cells: HEK cells are stated only for the free probe
T2 sequence (P24046 22-479): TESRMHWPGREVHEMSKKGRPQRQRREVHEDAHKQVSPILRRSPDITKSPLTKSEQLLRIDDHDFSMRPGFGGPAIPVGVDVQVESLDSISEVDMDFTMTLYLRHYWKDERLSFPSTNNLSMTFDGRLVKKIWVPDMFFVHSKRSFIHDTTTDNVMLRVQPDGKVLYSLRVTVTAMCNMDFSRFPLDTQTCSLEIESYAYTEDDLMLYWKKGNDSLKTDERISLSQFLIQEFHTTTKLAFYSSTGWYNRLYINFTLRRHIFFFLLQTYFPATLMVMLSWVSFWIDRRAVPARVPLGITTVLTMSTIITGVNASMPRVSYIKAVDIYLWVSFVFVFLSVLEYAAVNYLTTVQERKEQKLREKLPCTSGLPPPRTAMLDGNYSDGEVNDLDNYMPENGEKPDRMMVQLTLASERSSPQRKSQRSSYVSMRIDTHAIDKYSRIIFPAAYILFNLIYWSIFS
Text: FIG. 13: Biosensors allowing to track Cys-loop receptor family activity. Insertion of NG-CF-NL or NL-CF-YFP probes in the second intracellular loop of cationic receptors (A) allows to track activity of nicotinic (B) or serotonin receptors (C). A BRET probe called YPetCI was also developed to sense intracellular anionic flux (D and F). When inserted in the second intracellular loop of GABARho1 subunit this probe allows to track activity of the GABA receptor (G).
We also developed a BRET probe allowing to sense anionic flux by fusing the cDNA of a chloride sensitive variant of YFP (YFP Chlore or YPetCI) to the cDNA of nLuc (FIG. 13D). When expressed in HEK cells this probe is able to detect the anionic influx generated by VRAC channel opening following a hypotonic challenge (FIG. 13F). Based on this probe, we generated a biosensor allowing to measure the activity of the anionic GABA receptors. We inserted the cDNA of the YPetCI sensor in the second intracellular loop of the GABARho1 subunit (FIG. 13E).

mP2X4 = target: T3, mP2X4 (Mus musculus, UniProt Q9JJX6); assay: mP2X4-NeonGreen-Calflux-nLuc BRET probe in HEK293T cells; settings: FIG. 11
T3 construct: expressed in transfected cells; host or cells: HEK293T
T3 sequence (Q9JJX6 1-388): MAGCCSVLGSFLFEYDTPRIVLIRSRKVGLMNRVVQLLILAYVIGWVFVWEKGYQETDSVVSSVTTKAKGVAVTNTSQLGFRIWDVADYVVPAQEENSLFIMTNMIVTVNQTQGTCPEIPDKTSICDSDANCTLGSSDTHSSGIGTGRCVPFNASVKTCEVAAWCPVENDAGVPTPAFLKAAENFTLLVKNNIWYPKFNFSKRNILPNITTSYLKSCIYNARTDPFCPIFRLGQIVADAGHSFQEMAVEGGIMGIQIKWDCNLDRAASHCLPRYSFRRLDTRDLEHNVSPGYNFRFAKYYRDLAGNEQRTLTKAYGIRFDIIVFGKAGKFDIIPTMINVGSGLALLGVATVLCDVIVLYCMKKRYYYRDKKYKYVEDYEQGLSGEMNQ
Text: as §1, §2

TRPV1 ion channel = target: T4, TRPV1 ion channel (Homo sapiens, UniProt Q8NER1); assay: mNeonGreen-Calflux-nLuc-hTRPV1 BRET biosensor in HEK293T cells; settings: kinetic measurement, FIG. 8A
T4 construct: expressed in transfected cells; host or cells: HEK293T
T4 sequence (Q8NER1 whole entry): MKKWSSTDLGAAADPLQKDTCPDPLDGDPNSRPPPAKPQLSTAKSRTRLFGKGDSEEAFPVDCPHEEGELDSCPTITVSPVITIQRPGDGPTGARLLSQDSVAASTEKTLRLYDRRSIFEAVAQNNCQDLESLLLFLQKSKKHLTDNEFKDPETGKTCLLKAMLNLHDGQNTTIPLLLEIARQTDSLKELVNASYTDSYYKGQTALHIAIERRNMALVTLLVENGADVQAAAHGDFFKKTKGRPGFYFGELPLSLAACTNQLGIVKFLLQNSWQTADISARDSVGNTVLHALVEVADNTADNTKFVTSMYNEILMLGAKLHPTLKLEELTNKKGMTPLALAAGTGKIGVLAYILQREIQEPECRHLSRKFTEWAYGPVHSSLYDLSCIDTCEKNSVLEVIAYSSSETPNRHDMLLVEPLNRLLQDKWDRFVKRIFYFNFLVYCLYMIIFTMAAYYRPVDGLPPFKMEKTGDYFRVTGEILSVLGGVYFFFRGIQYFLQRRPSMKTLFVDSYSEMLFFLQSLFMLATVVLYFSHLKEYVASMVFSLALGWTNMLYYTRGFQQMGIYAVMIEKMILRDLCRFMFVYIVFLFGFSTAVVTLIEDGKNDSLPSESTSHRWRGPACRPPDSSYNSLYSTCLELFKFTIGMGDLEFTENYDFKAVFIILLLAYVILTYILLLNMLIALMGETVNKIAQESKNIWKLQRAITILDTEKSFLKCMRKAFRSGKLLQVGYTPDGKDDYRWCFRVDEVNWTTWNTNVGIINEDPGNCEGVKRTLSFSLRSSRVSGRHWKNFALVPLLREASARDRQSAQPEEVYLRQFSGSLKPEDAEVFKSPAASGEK

TRPV1 channel = target: T5, TRPV1 channel (Homo sapiens, UniProt Q8NER1); assay: hTRPV1-nLuc-Calflux-YFP (or mNeonGreen) BRET probe in HEK293T cells; settings: TRPV1-nLuc-Calflux-YFP/mNeonGreen probe
T5 construct: expressed in transfected cells; host or cells: HEK293T
T5 sequence (Q8NER1 whole entry): as above

hP2X5 = target: T6, hP2X5 (Homo sapiens, UniProt Q93086); assay: hP2X5-NeonGreen-Calflux-nLuc BRET probe in HEK293T cells; settings: read-out: EC50 of activation of hP2X5 probe
T6 construct: expressed in transfected cells; host or cells: HEK293T
T6 sequence (Q93086 whole entry): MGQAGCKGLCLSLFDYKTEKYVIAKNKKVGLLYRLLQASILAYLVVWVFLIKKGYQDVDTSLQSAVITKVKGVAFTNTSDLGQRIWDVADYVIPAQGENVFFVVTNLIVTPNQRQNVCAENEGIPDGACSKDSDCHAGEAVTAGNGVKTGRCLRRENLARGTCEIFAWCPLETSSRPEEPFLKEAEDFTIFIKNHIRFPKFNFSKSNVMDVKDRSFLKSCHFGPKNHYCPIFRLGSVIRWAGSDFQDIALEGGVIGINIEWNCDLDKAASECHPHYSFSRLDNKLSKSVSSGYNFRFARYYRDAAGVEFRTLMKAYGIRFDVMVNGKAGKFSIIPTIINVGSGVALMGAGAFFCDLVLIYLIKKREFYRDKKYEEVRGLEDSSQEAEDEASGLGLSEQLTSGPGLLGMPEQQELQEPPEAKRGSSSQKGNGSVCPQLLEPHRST
Text: as §1, §2

hP2X2 = target: T7, hP2X2 (Homo sapiens, UniProt Q9UBL9); assay: hP2X2-NeonGreen-Calflux-nLuc BRET probe in HEK293T cells; settings: read-out: EC50 of activation of hP2X2 probe
T7 construct: expressed in transfected cells; host or cells: HEK293T
T7 sequence (Q9UBL9 1-471): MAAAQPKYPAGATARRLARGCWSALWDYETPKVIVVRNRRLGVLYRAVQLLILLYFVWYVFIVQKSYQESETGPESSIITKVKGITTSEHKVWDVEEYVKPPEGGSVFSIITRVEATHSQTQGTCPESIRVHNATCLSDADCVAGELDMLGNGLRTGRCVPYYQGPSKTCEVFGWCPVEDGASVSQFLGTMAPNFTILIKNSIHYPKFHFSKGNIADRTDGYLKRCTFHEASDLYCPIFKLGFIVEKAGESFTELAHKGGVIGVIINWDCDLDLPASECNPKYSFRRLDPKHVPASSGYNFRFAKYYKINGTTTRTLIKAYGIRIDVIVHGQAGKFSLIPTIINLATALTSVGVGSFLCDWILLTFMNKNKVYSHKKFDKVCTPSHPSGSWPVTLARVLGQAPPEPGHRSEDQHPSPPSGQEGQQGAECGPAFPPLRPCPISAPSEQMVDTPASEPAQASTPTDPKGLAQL
Text: as §1, §2

hP2X4 = target: T8, hP2X4 (Homo sapiens, UniProt Q99571); assay: hP2X4-NeonGreen-Calflux-nLuc BRET probe in HEK293T cells; settings: read-out: EC50 of activation of hP2X4 probe
T8 construct: expressed in transfected cells; host or cells: HEK293T
T8 sequence (Q99571 1-388): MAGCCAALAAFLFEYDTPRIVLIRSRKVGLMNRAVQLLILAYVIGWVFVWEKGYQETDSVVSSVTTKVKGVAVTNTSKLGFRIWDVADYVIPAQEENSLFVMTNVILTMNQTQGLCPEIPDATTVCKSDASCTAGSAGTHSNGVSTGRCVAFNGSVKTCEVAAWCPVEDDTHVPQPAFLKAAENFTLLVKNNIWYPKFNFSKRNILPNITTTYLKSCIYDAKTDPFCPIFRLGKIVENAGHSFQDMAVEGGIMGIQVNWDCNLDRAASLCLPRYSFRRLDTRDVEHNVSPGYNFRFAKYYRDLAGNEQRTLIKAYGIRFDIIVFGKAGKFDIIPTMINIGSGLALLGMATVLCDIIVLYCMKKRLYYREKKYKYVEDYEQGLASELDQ
Text: as §1, §2

P2X2 = target: T9, P2X2 (Rattus norvegicus, UniProt P49653); assay: rP2X2-nLuc-Calflux-YFP BRET probe in HEK293T cells; settings: read-out: EC50 of activation of P2X2-NLuc-CalFlux-YFP probe
T9 construct: expressed in transfected cells; host or cells: HEK293T
T9 sequence (P49653 1-472): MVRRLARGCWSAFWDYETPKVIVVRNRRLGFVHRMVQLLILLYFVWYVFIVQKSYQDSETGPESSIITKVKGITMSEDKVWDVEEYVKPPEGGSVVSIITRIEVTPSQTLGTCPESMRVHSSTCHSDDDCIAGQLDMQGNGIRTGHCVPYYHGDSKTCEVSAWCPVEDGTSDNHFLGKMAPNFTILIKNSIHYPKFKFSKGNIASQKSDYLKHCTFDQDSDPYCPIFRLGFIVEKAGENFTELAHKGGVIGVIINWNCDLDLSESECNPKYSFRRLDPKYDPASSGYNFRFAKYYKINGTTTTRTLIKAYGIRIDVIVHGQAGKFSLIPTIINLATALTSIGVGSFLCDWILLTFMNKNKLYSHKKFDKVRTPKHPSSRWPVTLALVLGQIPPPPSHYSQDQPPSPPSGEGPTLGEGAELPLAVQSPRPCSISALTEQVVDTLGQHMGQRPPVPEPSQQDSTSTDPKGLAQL

EC50 (hP2X7): 49000 nM
Compound: BzATP

modulation of BRET signal (GABARho1 (GABA receptor)): modulated
Compound: NCCCC(=O)O [GABA, γ-aminobutyric acid]

modulation of basal BRET signal (mP2X4): modulated in a dose-dependent manner | change of basal BRET after exposure (TRPV1 ion channel): only faintly and transiently increased | change of BRET signal on stimulation (TRPV1 channel): does not respond | EC50 (hP2X5): 480 nM | EC50 (hP2X2): 1630 nM | EC50 (hP2X4): 490 nM | EC50 (P2X2): 888 ± 274 nM
Compound: Nc1ncnc2c1ncn2[C@@H]1O[C@H](COP(=O)(O)OP(=O)(O)OP(=O)(O)O)[C@@H](O)[C@H]1O [ATP]
